Assay results as given in patent publication US5364776A, “Method of hydroxylating 3-[3-(5-ethyl-2-methoxy-6-methylpyridyl)methyl]amino-5-ethyl-6-methyl-2( 1H)-pyridinone with liver slices” (Merck & Co., Inc., priority 1992, dated 1994).
pIC50: −log10 of the molar value.

How the values were obtained:
[1] = target: T1, recombinant HIV reverse transcriptase (HIV RTR) (Human immunodeficiency virus type 1 group M subtype B, UniProt P04585); assay: Reverse transcriptase assay: incorporation of tritiated deoxyguanosine monophosphate into acid-precipitable cDNA by recombinant HIV reverse transcriptase; type: biochemical; conditions: poly r(C).oligo d(G)12-18 template, [3H]dGTP, pH 8.2 buffer, 37° C., 45 minutes
T1 construct: recombinant HIV reverse transcriptase (HIV RTR)
Method: The assay measures the incorporation of tritiated deoxyguanosine monophosphate by recombinant HIV reverse transcriptase (HIV RTR) (or other RT) into acid-precipitable cDNA at the Km values of dGTP and poly r(C).cndot.oligo d(G)12-18.
Thirty uL of a reaction mixture containing equal volumes of: 500 mM Tris.cndot.HCl (pH 8.2), 300 mM MgCl2, 1200 mM KCl, 10 mM DTT, 400 μg/mL poly r(c).cndot.oligo d(G) [prepared by dissolving 1.5 mg (25 U) poly r(C).cndot.oligo d(G) in 1.5 ml sterile distilled H2 O and diluting to 400 μg/ml], 0.1 μCi/μl [^3 H]dGTP, 160 μM dGTP, was added to 10 μl sterile distilled H2 O, and 2.5 μl of potential inhibitor. An aliquot of 10 μL of 5 nM purified HIV RTR was added to initiate the reaction. The mixture was incubated at 37° C. for 45 minutes.
After incubation is complete, the tubes were cooled in ice for 5 minutes. Ice-cold 13% TCA containing 10 mM NaPPi (200 μl) are added and the mixture incubated on ice for 30 minutes. The precipitated cDNA is removed by filtration using presoaked glass filters [TCA, NaPPi ]. The precipitate is then washed with 1N HCl, 10 mM NaPPi.
The filter discs are then counted in a scintillation counter.
Under these conditions [dGTP] and poly r(C).cndot.oligo d(G)12-18 each are approximately equal to the appropriate Km value. Approximately 5-6,000 cpm of [^3 H] GMP are incorporated into acid-precipitable material. The RT reaction is concentration- and time-dependent. […] The calculated IC50 values for the compounds of this invention are as follows: […]

[2] = In vitro metabolism of compound II with rat liver slices; type: in vitro ADME; conditions: 157.7 μM, four hours, 37° C., pH 7.4, HPLC photodiode array-UV
Method: Compound II (157.7 μM) was incubated with rat liver slices (10.17 g wet weight, 250-400 μ thick, ~1.2 cm wide) in 100 ml of Williams' Medium E at pH 7.4 and at 37° C. under an atmosphere of 95% oxygen and 5% carbon dioxide. After four hours the incubation mixture was extracted with ethyl acetate. The extract was evaporated to dryness and the residue reconstituted in methanol. The reconstitute was subjected to preparative HPLC on a reverse-phase column with an on-line UV-diode array detector. Three major metabolites--Ia, Ib and Ic--were isolated for characterization by NMR spectroscopy and mass spectrometry.
The three major products were identified by proton NMR (500 MHz; see Table below) and mass spectrometry as resulting from α-hydroxylation of the ethyl group on the pyridinone (HPLC Peak designating compound Ia), and β- and α-hydroxylation of the ethyl group on the pyridine (designated compounds Ic and Ib, respectively). [drawing 14]

Structure (SMILES)	pIC50 [1]	number of major products (metabolites) formed [2]	number of minor products formed [2]
CCc1cc(NCc2cc(CC)c(C)nc2OC)c(O)nc1C [Compound II, 3-[3-(5-ethyl-2-methoxy-6-methylpyridyl)methyl]amino-5-ethyl-6-methyl-2(1H)-pyridinone]	7.54	three	at least 5
CCc1cc(CNc2cc(C(C)O)c(C)[nH]c2=O)c(OC)nc1C (stereo not drawn) [Ia, 3-[3-(5-ethyl-2-methoxy-6-methylpyridyl)methyl]amino-5-(1-hydroxy)ethyl-6-m ethyl-2(1H )-pyridinone]	6.71		
CCc1cc(NCc2cc(C(C)O)c(C)nc2OC)c(=O)[nH]c1C (stereo not drawn) [Ib, 3-[3-(5-(1-hydroxy)ethyl-2-methoxy-6-methylpyridyl)methyl]amino-5-ethyl-6-m ethyl-2(1H)-pyridinone]	6.41		
CCc1cc(NCc2cc(CCO)c(C)nc2OC)c(=O)[nH]c1C [Ic, 3-[3-(5-(2-hydroxy)ethyl-2-methoxy-6-methylpyridyl)-methyl]amino-5-ethyl-6-methyl-2(1H)-pyridinone]	6.60		
